Reference: publication PMC10206591, “Identification of small molecules capable of enhancing viral membrane fusion” (Virology Journal, 2023)
Counter-ions that a name gives are not always drawn.

Test system: SARS-CoV-2 S-mediated membrane fusion

SMILES | Z-score
CC=CC(=O)N(CC)c1ccccc1C (mixture of isomers) [Crotamiton] | 2,94
O=c1[nH]cc(F)c(=O)[nH]1 [5-fluorouracil] | 3,16
CC(=O)c1ccc2c(c1)N(CCCN(C)C)c1ccccc1S2.O=C(O)/C=C\C(=O)O [Acetopromazine maleate salt] | 1,71
CCCSc1ccc2nc(NC(=O)OC)[nH]c2c1 [Albendazole] | 1,67
C=CC[C@]1(O)CC[C@H]2[C@@H]3CCC4=CC(=O)CCC4=C3C=C[C@@]21C [Altrenogest] | 2,61
CCCCCC[C@H]1C(=O)O[C@H](C)[C@H](NC(=O)c2cccc(NC=O)c2O)C(=O)O[C@@H](C)[C@@H]1OC(=O)CC(C)C [Antimycin A] | 4,08
CC(C)c1c(C(=O)Nc2ccccc2)c(-c2ccccc2)c(-c2ccc(F)cc2)n1CC[C@@H](O)C[C@@H](O)CC(=O)O [Atorvastatin] | 1,88
Nc1nc(O)c2[nH]nnc2n1 [Azaguanine-8] | 6,79
CCCC1C(=O)N2C(N(C)C)=Nc3ccc(C)cc3N2C1=O (stereo not shown) [Azapropazone] | 1,91
CN1CCCC(n2nc(Cc3ccc(Cl)cc3)c3ccccc3c2=O)CC1 (stereo not shown) [Azelastine hydrochloride] | 1,52
Cl.N[C@@H]1CCCCN(c2c(F)cc3c(=O)c(C(=O)O)cn(C4CC4)c3c2Cl)C1 [Besifloxacin hydrochloride] | 2,15
CC(C)C[C@H]1C(=O)N2CCC[C@H]2[C@]2(O)O[C@](NC(=O)[C@@H]3C=C4c5cccc6[nH]c(Br)c(c56)C[C@H]4N(C)C3)(C(C)C)C(=O)N12.CS(=O)(=O)O [Bromocryptine mesylate] | 5,89
CCCCCCNC(=O)n1cc(F)c(=O)[nH]c1=O [Carmofur] | 4,69
O=C(N[C@H](CO)[C@H](O)c1ccc([N+](=O)[O-])cc1)C(Cl)Cl [Chloramphenicol] | 2,64
Nc1nc(Cl)nc2c1ncn2[C@H]1C[C@H](O)[C@@H](CO)O1 [Cladribine] | 1,60
CCCCCCC[N+](CC)(CC)CCCCc1ccc(Cl)cc1.Cc1ccc(S(=O)(=O)[O-])cc1 [Clofilium tosylate] | 2,76
COc1cc2c(c(OC)c1OC)-c1ccc(OC)c(=O)cc1[C@@H](NC(C)=O)CC2 [Colchicine] | 1,93
CN(C)/N=N/c1[nH]cnc1C(N)=O [Dacarbazine] | 2,34
COc1cccc2c1C(=O)c1c(O)c3c(c(O)c1C2=O)C[C@@](O)(C(C)=O)C[C@@H]3O[C@H]1C[C@H](N)[C@H](O)[C@H](C)O1 [Daunorubicin hydrochloride] | 1,79
Cc1cc(N)c2ccccc2[n+]1CCCCCCCCCC[n+]1c(C)cc(N)c2ccccc21 [Dequalinium dichloride] | 4,90
Clc1ccc2c(c1)CCc1cccnc1C2=C1CCNCC1 [Desloratadine] | 1,59
CC1(C)O[C@@H]2C[C@H]3[C@@H]4CCC5=CC(=O)C=C[C@]5(C)[C@H]4[C@@H](O)C[C@]3(C)[C@]2(C(=O)CO)O1 [Desonide] | 1,59
CC(=O)O[C@@]12CO[C@@H]1C[C@H](O)[C@@]1(C)C(=O)[C@H](O)C3=C(C)[C@@H](OC(=O)[C@H](O)[C@@H](NC(=O)OC(C)(C)C)c4ccccc4)C[C@@](O)([C@@H](OC(=O)c4ccccc4)[C@H]21)C3(C)C [Docetaxel] | 1,72
COc1cccc2c1C(=O)c1c(O)c3c(c(O)c1C2=O)C[C@@](O)(C(=O)CO)C[C@@H]3O[C@H]1C[C@H](N)[C@H](O)[C@H](C)O1 [Doxorubicin hydrochloride] | 4,48

SMILES | Z-score
C[C@H]1c2cccc(O)c2C(=O)C2=C(O)[C@]3(O)C(=O)C(C(N)=O)=C(O)[C@@H](N(C)C)[C@@H]3[C@@H](O)[C@@H]21 [Doxycycline hydrochloride] | 3,00
C=CCOC(Cn1ccnc1)c1ccc(Cl)cc1Cl (stereo not shown) [Enilconazole] | 3,25
C[C@]12CC[C@H]3C(=CCc4cc(O)ccc43)[C@@H]1CCC2=O [Equilin] | 1,98
C[C@]12CC[C@@H]3c4ccc(OC(=O)N(CCCl)CCCl)cc4CC[C@H]3[C@@H]1CC[C@@H]2O [Estramustine] | 3,30
CCOc1ccc(Cc2nccc3cc(OCC)c(OCC)cc23)cc1OCC [Ethaverine hydrochloride] | 4,10
C#C[C@]1(O)CC[C@H]2[C@@H]3CCc4cc(OC)ccc4[C@H]3CC[C@@]21C [Ethynylestradiol 3-methyl ether] | 1,52
O=c1[nH]c(=O)n([C@H]2C[C@H](O)[C@@H](CO)O2)cc1F [Floxuridine] | 4,71
COC(=O)Nc1nc2cc(C(=O)c3ccc(F)cc3)ccc2[nH]1 [Flubendazol] | 3,95
CC(=O)O[C@H]1C[C@@]2(C)[C@@H](C[C@@H](O)[C@H]3[C@@]4(C)CC[C@@H](O)[C@@H](C)[C@@H]4CC[C@@]32C)/C1=C(\CCC=C(C)C)C(=O)O [Fusidic acid sodium salt] | 2,35
COc1cc2ncnc(Nc3ccc(F)c(Cl)c3)c2cc1OCCCN1CCOCC1 [Gefitinib] | 3,33
Oc1c(Cl)cc(Cl)c(Cl)c1Cc1c(O)c(Cl)cc(Cl)c1Cl [Hexachlorophene] | 3,99
CC[C@H](c1ccc(O)cc1)[C@@H](CC)c1ccc(O)cc1 [Hexestrol] | 2,65
CN1CCCN(C(c2ccccc2)c2ccc(Cl)cc2)CC1.Cl.Cl (stereo not shown) [Homochlorcyclizine dihydrochloride] | 2,19
CC(C)C(=O)c1c(C(C)C)nn2ccccc12 [Ibudilast] | 1,71
Cc1ccc(NC(=O)c2ccc(CN3CCN(C)CC3)cc2)cc1Nc1nccc(-c2cccnc2)n1 [Imatinib] | 2,20
CC(C)Oc1ccc2c(=O)c(-c3ccccc3)coc2c1 [Ipriflavone] | 2,37
CCc1c2c(nc3ccc(OC(=O)N4CCC(N5CCCCC5)CC4)cc13)-c1cc3c(c(=O)n1C2)COC(=O)[C@]3(O)CC.Cl.O.O.O [Irinotecan hydrochloride trihydrate] | 4,23
Cc1c(OCC(F)(F)F)ccnc1C[S+]([O-])c1nc2ccccc2[nH]1 (stereo not shown) [Lansoprazole] | 3,43
CNCCCC12CCC(c3ccccc31)c1ccccc12 [Maprotiline hydrochloride] | 2,05
O=C([O-])c1ccccc1-c1c2cc(Br)c(=O)cc-2oc2[c]([Hg+])c([O-])c(Br)cc12.[Na+].[Na+].[OH-] [Merbromin] | 8,74
COC(=O)Nc1nc2ccc(SC(C)C)cc2[nH]1 [Methiazole] | 3,16
CC[C@H](C)C(=O)O[C@H]1CCC=C2C=C[C@H](C)[C@H](CC[C@@H]3C[C@@H](O)CC(=O)O3)[C@H]21 [Mevastatin] | 1,92
CN(C)c1ccc(O)c2c1C[C@H]1C[C@H]3[C@H](N(C)C)C(O)=C(C(N)=O)C(=O)[C@@]3(O)C(O)=C1C2=O [Minocycline hydrochloride] | 4,43
CN(c1nccc(=O)[nH]1)C1CCN(c2nc3ccccc3n2Cc2ccc(F)cc2)CC1 [Mizolastine] | 2,15

SMILES | Z-score
C[C@@H]1C[C@H]2[C@@H]3CCC4=CC(=O)C=C[C@]4(C)[C@@]3(Cl)[C@@H](O)C[C@]2(C)[C@@]1(OC(=O)c1ccco1)C(=O)CCl [Mometasone furoate] | 2,51
C/C(=C\C(=O)OCCCCCCCCC(=O)O)C[C@@H]1OC[C@H](C[C@@H]2O[C@H]2[C@@H](C)[C@H](C)O)[C@@H](O)[C@H]1O [Mupirocin] | 1,57
O=C1CN(/N=C/c2ccc([N+](=O)[O-])o2)C(=O)N1 [Nitrofurantoin] | 2,23
COC(=O)Nc1nc2ccc(C(=O)c3cccs3)cc2[nH]1 [Nocodazole] | 2,99
COC(=O)Nc1nc2ccc([S+]([O-])c3ccccc3)cc2[nH]1 (stereo not shown) [Oxfendazol] | 1,63
CCCOc1ccc2nc(NC(=O)OC)[nH]c2c1 [Oxibendazol] | 2,13
CN(C)[C@@H]1C(O)=C(C(N)=O)C(=O)[C@@]2(O)C(O)=C3C(=O)c4c(O)cccc4[C@@](C)(O)[C@H]3[C@H](O)[C@@H]12 [Oxytetracycline dihydrate] | 2,06
COc1ccc(Cc2nccc3cc(OC)c(OC)cc23)cc1OC [Papaverine hydrochloride] | 4,33
CCCCc1ccc2[nH]c(NC(=O)OC)nc2c1 [Parbendazole] | 2,56
N=C(N)c1ccc(OCCCCCOc2ccc(C(=N)N)cc2)cc1 [Pentamidine isethionate] | 6,07
O=C(O)CN(CCN(CC(=O)O)CC(=O)O)CCN(CC(=O)O)CC(=O)O [Pentetic acid] | 2,14
C1CCC(C(CC2CCCCN2)C2CCCCC2)CC1 (stereo not shown) [Perhexiline maleate] | 2,68
CC(=O)Nc1ccc(OCC(O)CNC(C)C)cc1 (stereo not shown) [Practolol] | 1,57
COCCCOc1ccnc(C[S+]([O-])c2nc3ccccc3[nH]2)c1C (stereo not shown) [Rabeprazole Sodium salt] | 3,89
O=C(O)c1cn(-c2ccc(F)cc2)c2cc(N3CCNCC3)c(F)cc2c1=O [Sarafloxacin] | 2,16
C[C@@H]1CN(c2c(F)c(N)c3c(=O)c(C(=O)O)cn(C4CC4)c3c2F)C[C@H](C)N1 [Sparfloxacin] | 2,09
CS(=O)(=O)c1ccc([C@@H](O)[C@@H](CO)NC(=O)C(Cl)Cl)cc1 [Thiamphenicol] | 2,42
CN1CCN(CCCN2c3ccccc3Sc3ccc(S(=O)(=O)N(C)C)cc32)CC1.CS(=O)(=O)O.CS(=O)(=O)O [Thioproperazine dimesylate] | 2,39
C=C(NC(=O)C(=C)NC(=O)c1csc(C2=N[C@@H]3c4csc(n4)[C@H]4NC(=O)c5csc(n5)[C@H]([C@](C)(O)[C@@H](C)O)NC(=O)[C@H]5CSC(=N5)/C(=C/C)NC(=O)[C@H]([C@@H](C)O)NC(=O)c5csc(n5)[C@]3(CC2)NC(=O)[C@H](C)NC(=O)C(=C)NC(=O)[C@H](C)NC(=O)[C@H]([C@@H](C)CC)N[C@@H]2C=Cc3c([C@H](C)O)cc(nc3[C@H]2O)C(=O)O[C@@H]4C)n1)C(N)=O [Thiostrepton] | 5,52
O=C(O)Cc1cc(I)c(Oc2ccc(O)c(I)c2)c(I)c1 [Tiratricol, 3,3',5-triiodothyroacetic acid] | 4,40
Cl.NC1CCN(c2nc3c(cc2F)c(=O)c(C(=O)O)cn3-c2ccc(F)cc2F)C1 (stereo not shown) [Tosufloxacin hydrochloride] | 1,77
O=C(CCCCCCC(=O)Nc1ccccc1)NO [Vorinostat] | 4,62
